Tests used:
Arabidopsis thaliana [1] = assay: Root growth-promoting activity test (Example 9); assay type: in vivo; details: main root length vs control section, 22° C., 10 days
Method: (§1) Enshi standard medium having the following composition (see Table 10) was prepared. To cluster tubes was dispensed each 4 μl of a solution of a chemical substance in DMSO to a final concentration of 0.001 ppm to 10 ppm, and then, was dispensed each 600 μl of the sterilized Enshi standard medium. Then the resulting solution was well mixed. In each of the cluster tubes, 10-20 seeds of Arabidopsis thaliana were sown, and cultured at 22° C. for 10 days in the light. Then, the length of main roots (average main roots) generated from the seeds of Arabidopsis thaliana was measured. An average of eight repeats was determined, and a root growth rate was determined according to the following equation.
(§2) Root growth rate (%)=(Average main root length in chemical substance-treated section)/(Average main root length in control section)×100

Arabidopsis thaliana [2] = assay: Root growth-promoting activity test (Example 22); assay type: in vivo; details: main root length vs control section, 22° C., 10 days
Method: as §1, with “18)” for “10)”
as §2
Enshi standard medium determined having the following composition (Table 18) was prepared. A DMSO solution of a chemical substance was dispensed by 4 μl to cluster tubes to a final concentration of 0.001 ppm to 10 ppm and the sterilized Enshi standard medium was dispensed by 600 μl and then the resulting solution was well mixed. 10-20 seeds of A. thaliana per cluster tube were sown in the cluster tubes. After culture at 22° C. for 10 days in bright light, the length of main roots (average main roots) took from seeds of A. thaliana was measured. An average of eight repeats was determined and the root growth rate was determined.
Root growth rate (%)=(Average main root length of chemical substance-treated section)/(Average main root length of control section)×100

[3] = system: transformed cell TM182-p415CYC1; assay: Control growth test with transformed yeast cell TM182-p415CYC1 (toxicity to yeast); assay type: cell-based; details: trans-zeatin 0.6 ppm; chemical substance 2 ppm; 30° C., 24 hours; turbidity OD 600
Method: (§3) The transformed cell TM182-CRE1 and the transformed cell TM182-p415CYC1 obtained in Example 6 were each inoculated in 10 ml of a DOLU+Gal medium, and preincubated at 30° C. for 18 hours to obtain a preincubation liquid for each of the transformed cells. The preincubation liquid was diluted with a DOLU+Glu medium for the transformed cell TM182-CRE1 or with a DOLU+Gal medium for the transformed cell TM182-p415CYC1 until OD600=0.1 was reached, to obtain a preincubation dilution for each of the transformed cells.
(§4) To each well of a 96-well plate was added 1 μl of a 200 ppm solution of a test substance in dimethyl sulfoxide (DMSO) to prepare an Assay plate. At the same time, as controls, only 1 μl of DMSO was added to a part of wells. An assay plate for the transformed cell TM182-CRE1 and an assay plate for the transformed cell TM182-p415CYC1 were prepared.
(§5) A 10,000 ppm solution of trans-zeatin (cytokinin) in DMSO was 50-fold diluted with a DOLU+Gul medium to 200 ppm. The 200 ppm trans-zeatin solution was added in an amount of 3/1,000 volume to each of the above-described preincubation dilution to prepare each preincubation dilution containing trans-zeatin at 0.6 ppm. The 0.6 ppm preincubation dilution was added in an amount of 100 μl to each wells of the assay plate for each transformed cell. The plates were incubated at 30° C. for 24 hours. Then, turbidity (OD 600) of each well was measured by using a plate reader. The activity of the test substance for inhibiting intracellular signaling from a plant-derived cytokinin receptor of a cell was tested by comparing the measured turbidity with the turbidity of the control well.
(§6) (Relative growth rate in test section to control section) [%]=[(Turbidity in test section)−(Turbidity in blank)]/[(Turbidity in control section)−(Turbidity in blank)]×100 (Activity of inhibiting intracellular signaling from plant-derived cytokinin receptor of cell) [%]=100−(Relative growth rate in test section to control section)
(§7) In all cases, the existing concentration of trans-zeatin was adjusted to 0.6 ppm and the existing concentration of a chemical substance was adjusted to 2 ppm.
(§8) In all cases, the existing concentration of trans-zeatin was adjusted to 0.6 ppm and the existing concentration of a chemical substance was adjusted to 2 […].

cytokinin receptor CRE1 = target: T1, cytokinin receptor CRE1 (Arabidopsis thaliana, UniProt Q9C5U0, S567G/T1018A); assay: Inhibition of intracellular signaling from plant-derived cytokinin receptor, growth of transformed yeast cell TM182-CRE1; assay type: cell-based; details: trans-zeatin 0.6 ppm, chemical substance 2 ppm; for Relative growth rate (%) in test section of test substance to control section, Transformed cell TM182-CRE1: 30° C., 24 hours, turbidity OD 600; for Activity (%) of test substance for inhibiting intracellular signaling from plant-derived cytokinin receptor of cell: = 100 − relative growth rate of TM182-CRE1
T1 construct: expressed in transfected cells; host or cells: Saccharomyces cerevisiae TM182 (sln1Δ) transformed with p415CYC-CRE1
T1 sequence (Q9C5U0 24-1080 S567G/T1018A): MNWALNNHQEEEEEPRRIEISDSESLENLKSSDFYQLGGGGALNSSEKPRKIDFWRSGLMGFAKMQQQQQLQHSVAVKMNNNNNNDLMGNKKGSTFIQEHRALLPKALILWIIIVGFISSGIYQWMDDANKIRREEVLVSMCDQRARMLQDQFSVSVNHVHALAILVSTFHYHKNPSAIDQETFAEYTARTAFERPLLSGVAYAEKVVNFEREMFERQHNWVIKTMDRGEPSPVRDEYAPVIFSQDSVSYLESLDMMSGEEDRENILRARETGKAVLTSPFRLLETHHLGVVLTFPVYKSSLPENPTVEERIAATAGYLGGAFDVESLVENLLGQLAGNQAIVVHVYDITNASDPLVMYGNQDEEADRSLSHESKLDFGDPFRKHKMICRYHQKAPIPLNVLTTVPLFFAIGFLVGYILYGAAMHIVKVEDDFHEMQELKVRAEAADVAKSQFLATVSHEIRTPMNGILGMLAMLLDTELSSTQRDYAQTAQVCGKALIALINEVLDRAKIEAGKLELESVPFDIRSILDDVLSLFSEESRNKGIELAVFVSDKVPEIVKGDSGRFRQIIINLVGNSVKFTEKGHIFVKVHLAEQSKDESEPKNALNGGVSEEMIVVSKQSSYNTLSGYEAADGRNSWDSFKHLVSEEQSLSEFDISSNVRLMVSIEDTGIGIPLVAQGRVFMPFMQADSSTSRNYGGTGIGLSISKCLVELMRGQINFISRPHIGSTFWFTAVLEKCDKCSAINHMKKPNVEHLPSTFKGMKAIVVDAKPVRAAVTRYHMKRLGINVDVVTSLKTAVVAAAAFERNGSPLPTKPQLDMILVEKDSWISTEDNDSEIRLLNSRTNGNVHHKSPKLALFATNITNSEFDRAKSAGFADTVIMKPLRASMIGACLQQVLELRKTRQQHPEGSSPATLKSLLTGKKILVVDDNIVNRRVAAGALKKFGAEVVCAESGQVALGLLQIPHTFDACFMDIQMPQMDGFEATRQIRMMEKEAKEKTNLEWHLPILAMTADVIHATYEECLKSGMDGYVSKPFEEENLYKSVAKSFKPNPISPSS
Method: as §3, §4, §5, §6, §7, §8

[4] = test final concentration 10 ppm (concentration with highest root growth rate)
[5] = test final concentration 10 ppm (highest root growth rate)
[6] = test final concentration 1.25 ppm (concentration with highest root growth rate)
[7] = test final concentration 1.25 ppm (highest root growth rate)
[8] = test final concentration 5 ppm (concentration with highest root growth rate)
[9] = test final concentration 5 ppm (highest root growth rate)
[10] = test final concentration 2.5 ppm (concentration with highest root growth rate)
[11] = test final concentration 2.5 ppm (highest root growth rate)
[12] = test final concentration 0.625 ppm (concentration with highest root growth rate)
[13] = test final concentration 0.625 ppm (highest root growth rate)

SMILES	Root growth-promoting activity (root growth rate) (Arabidopsis thaliana [1]; [4]) [%]	Root growth-promoting activity (root growth rate) (Arabidopsis thaliana [2]; [5]) [%]	Relative growth rate (%) in test section of test substance to control section, Transformed cell TM182-p415CYC1 [3] [%]	Relative growth rate (%) in test section of test substance to control section, Transformed cell TM182-CRE1 (cytokinin receptor CRE1) [%]	Activity (%) of test substance for inhibiting intracellular signaling from plant-derived cytokinin receptor of cell (cytokinin receptor CRE1) [%]	other results
N#Cc1ccc2nc(NCCCO)nc(-c3ccccc3)c2c1 [Ic9-1]	141.5	141.5				
COCCNc1nc(-c2ccccc2)c2cc(Cl)ccc2n1 [Ic3-7]			104.1	2.8	97.2	Root growth-promoting activity (root growth rate) (Arabidopsis thaliana [1]; [6]): 142.5%; Root growth-promoting activity (root growth rate) (Arabidopsis thaliana [2]; [7]): 142.5%
Clc1ccc2nc(NCC3CCCO3)nc(-c3ccccc3)c2c1 (stereo not shown) [Ic3-37]			114.2	3.5	96.5	Root growth-promoting activity (root growth rate) (Arabidopsis thaliana [1]; [8]): 138.5%; Root growth-promoting activity (root growth rate) (Arabidopsis thaliana [2]; [9]): 138.5%
OCC(O)CNc1nc(-c2ccccc2)c2cc(Cl)ccc2n1 (stereo not shown) [Ic3-41]			123.3	8.8	91.2	Root growth-promoting activity (root growth rate) (Arabidopsis thaliana [1]; [8]): 134.5%; Root growth-promoting activity (root growth rate) (Arabidopsis thaliana [2]; [9]): 134.5%
C=CCNc1nc(-c2ccccc2)c2cc(Cl)ccc2n1 [Ic3-29]	122.4	122.4	92.7	1.6	98.4	
OCCCNc1nc(-c2ccccc2)c2cc(C(F)(F)F)ccc2n1 [Ic6-2]						Root growth-promoting activity (root growth rate) (Arabidopsis thaliana [1]; [10]): 155.9%; Root growth-promoting activity (root growth rate) (Arabidopsis thaliana [2]; [11]): 155.9%
OCCCCCCNc1nc(-c2ccccc2)c2cc(Cl)ccc2n1 [Ic3-11]			84.6	3.9	96.1	Root growth-promoting activity (root growth rate) (Arabidopsis thaliana [1]; [6]): 128.2%; Root growth-promoting activity (root growth rate) (Arabidopsis thaliana [2]; [7]): 128.2%
CC(CO)Nc1nc(-c2ccccc2)c2cc(Cl)ccc2n1 (stereo not shown) [Ic3-44]			101.4	7.0	93.0	Root growth-promoting activity (root growth rate) (Arabidopsis thaliana [1]; [6]): 126.5%; Root growth-promoting activity (root growth rate) (Arabidopsis thaliana [2]; [7]): 126.5%
OCCCCCNc1nc(-c2ccccc2)c2cc(Cl)ccc2n1 [Ic3-5]			115.4	3.5	96.5	Root growth-promoting activity (root growth rate) (Arabidopsis thaliana [1]; [12]): 134.0%; Root growth-promoting activity (root growth rate) (Arabidopsis thaliana [2]; [13]): 134.0%
CC(CO)CCNc1nc(-c2ccccc2)c2cc(Cl)ccc2n1 (stereo not shown) [Ic3-12]			90.9	5.6	94.4	Root growth-promoting activity (root growth rate) (Arabidopsis thaliana [1]; [6]): 128.9%; Root growth-promoting activity (root growth rate) (Arabidopsis thaliana [2]; [7]): 128.9%
COC(=O)CNc1nc(-c2ccccc2)c2cc(Cl)ccc2n1 [Ic3-42]			111.5	−0.7	100.7	Root growth-promoting activity (root growth rate) (Arabidopsis thaliana [1]; [12]): 128.6%; Root growth-promoting activity (root growth rate) (Arabidopsis thaliana [2]; [13]): 128.6%
CC(C)Nc1nc(-c2ccccc2)c2cc(Cl)ccc2n1 [Ic3-28]	120.4	120.4				
OCCCNc1nc(-c2ccccc2)c2ccc(Cl)cc2n1 [Ic10-1]	163.6	163.6				
Clc1cc(Cl)c2nc(NCc3ccco3)nc(-c3ccccc3)c2c1 [Ic12-3]						Root growth-promoting activity (root growth rate) (Arabidopsis thaliana [1]; [10]): 138.8%; Root growth-promoting activity (root growth rate) (Arabidopsis thaliana [2]; [11]): 138.8%
CC(C)CCNc1nc(-c2ccccc2)c2cc(Cl)ccc2n1 [Ic3-10]	120.6	120.6				
CCCNc1nc(-c2ccccc2)c2cc(Cl)ccc2n1 [Ic3-8]						Root growth-promoting activity (root growth rate) (Arabidopsis thaliana [1]; [6]): 136.4%; Root growth-promoting activity (root growth rate) (Arabidopsis thaliana [2]; [7]): 136.4%
CC(C)=CCNc1nc(-c2ccccc2)c2cc(Cl)ccc2n1 [Ic3-17]	121.3	121.3				
OCCCNc1nc(-c2ccccc2)c2c(Cl)cccc2n1 [Ic1-1]						Root growth-promoting activity (root growth rate) (Arabidopsis thaliana [1]; [10]): 150.9%; Root growth-promoting activity (root growth rate) (Arabidopsis thaliana [2]; [11]): 150.9%
CN(CCO)c1nc(-c2ccccc2)c2cc(Cl)ccc2n1 [Ic3-6]			114.6	2.8	97.2	Root growth-promoting activity (root growth rate) (Arabidopsis thaliana [1]; [12]): 122.4%
